Biological target: human NaV 1.8 (Homo sapiens, UniProt Q9Y5Y9)
Assay: E-VIPR Assay Detecting and Measuring NaV Inhibition Properties
Assay type: cell-based
Settings: HEK cells expressing a truncated form of human NaV 1.8 with full channel activity; electrical stimulation, membrane potential FRET dyes; read-out: measured IC50 value in the E-VIPR Assay
Excerpt: E-VIPR Assay Detecting and Measuring NaV Inhibition Properties
Sodium ion channels are voltage-dependent proteins that can be activated by inducing membrane voltage changes by applying electric fields. The electrical stimulation instrument and methods of use, referred to as E-VIPR, are described in International Publication No. WO 2002/008748 A3 and C.-J. Huang et al. Characterization of voltage-gated sodium channel blockers by electrical stimulation and fluorescence detection of membrane potential, 24 Nature Biotech. 439-46 (2006), both of which are incorporated by reference in their entirety. The instrument comprises a microtiter plate handler, an optical system for exciting the coumarin dye while simultaneously recording the coumarin and oxonol emissions, a waveform generator, a current- or voltage-controlled amplifier, and parallel electrode pairs that are inserted into assay plate wells. Under integrated computer control, this instrument passes user-programmed electrical stimulus protocols to cells within the wells of the microtiter plate.
16-20 hours prior to running the assay on E-VIPR, HEK cells expressing a truncated form of human NaV 1.8 with full channel activity were seeded into microtiter 384-well plates, pre-coated with matrigel, at a density of 25,000 cells per well. 2.5-5% KIR2.1 Bacmam virus was added to the final cell suspension before seeding into cell plates. HEK cells were grown in Dulbecco's Modified Eagle's Medium (DMEM) supplemented with 10% FBS (Fetal Bovine Serum, qualified; Sigma #F4135), 1% NEAA (Non-Essential Amino Acids, Gibco #11140), 1% HEPES (Gibco #15630), 1% Pen-Strep (Penicillin-Streptomycin; Gibco #15140) and 5 μg/ml Blasticidin (Gibco #R210-01). Cells were expanded in vented cap cell culture flasks, with 90-95% humidity and 5% CO2.
2.5-5% KIR 2.1 Bacmam virus (produced in-house), prepared as described in Section 3.3 of J. A. Fornwald et al., Gene Expression in Mammalian Cells Using BacMam, a Modified Baculovirus System, 1350 Methods in Molecular Biology 95-116 (2016), the entire contents of which are incorporated by reference. The concentration used can be dependent on viral titer of each batch.
5 mM DiSBAC6(3), a voltage sensitive oxonol acceptor (CAS number 169211-44-3; 5-[3-(1,3-dihexylhexahydro-4,6-dioxo-2-thioxo-5-pyrimidinyl)-2-propen-1-ylidene]-1,3-dihexyldihydro-2-thioxo-4,6(1H,5H)-pyrimidinedione), in dry DMSO. The preparation of DiSBAC6(3) is analogous to that of DiSBAC4(3) as described in Voltage Sensing by Fluorescence Resonance Energy Transfer in Single Cells, Gonzalez, J. E. and Tsien, R. Y. (1995) Biophys. J. 69, 1272-1280.
5 mM CC2-DMPE, a commercially available membrane-bound coumarin phospholipid FRET donor (ThermoFisher Scientific catalog number K1017, CAS number 393782-57-5; tetradecanoic acid, 1,1′-[(1R)-1-[8-(6-chloro-7-hydroxy-2-oxo-2H-1-benzopyran-3-yl)-3-hydroxy-3-oxido-8-oxo-2,4-dioxa-7-aza-3-phosphaoct-1-yl]-1,2-ethanediyl] ester) was prepared in dry DMSO. See also, Improved indicators of cell membrane potential that use fluorescence resonance energy transfer, Gonzalez, J. E. and Tsien, R. Y. (1997) Chem. Biol. 4, 269-277.
Voltage Assay Background Suppression Compound (VABSC-1) is prepared in H2O (89-363 mM, range used to maintain solubility)
Human Serum (HS, Millipore #S1P1-01KL, or Sigma SLBR5469V and SLBR5470V as a 50%/50% mixture, for 25% assay final concentration)
• Sodium Chloride 160 mM (9.35 g/L), Potassium Chloride, 4.5 mM (0.335 g/L), Glucose • 10 mM (1.8 g/L), Magnesium Chloride (Anhydrous) 1 mM (0.095 g/L), Calcium • Chloride 2 mM (0.222 g/L), HEPES 10 mM (2.38 g/L) in water.
• Sodium Chloride 96 mM (5.61 g/L), Potassium Chloride 4.5 mM (0.335 g/L), • Tetramethylammonium (TMA)-Cl 64 mM (7.01 g/L), Glucose 10 mM (1.8 g/L), • Magnesium Chloride (Anhydrous) 1 mM (0.095 g/L), Calcium Chloride 2 mM (0.222 • g/L) HEPES 10 mM (2.38 g/L) in water. […]

human NaV 1.8, sequence (Q9Y5Y9 126-1722 limits assumed): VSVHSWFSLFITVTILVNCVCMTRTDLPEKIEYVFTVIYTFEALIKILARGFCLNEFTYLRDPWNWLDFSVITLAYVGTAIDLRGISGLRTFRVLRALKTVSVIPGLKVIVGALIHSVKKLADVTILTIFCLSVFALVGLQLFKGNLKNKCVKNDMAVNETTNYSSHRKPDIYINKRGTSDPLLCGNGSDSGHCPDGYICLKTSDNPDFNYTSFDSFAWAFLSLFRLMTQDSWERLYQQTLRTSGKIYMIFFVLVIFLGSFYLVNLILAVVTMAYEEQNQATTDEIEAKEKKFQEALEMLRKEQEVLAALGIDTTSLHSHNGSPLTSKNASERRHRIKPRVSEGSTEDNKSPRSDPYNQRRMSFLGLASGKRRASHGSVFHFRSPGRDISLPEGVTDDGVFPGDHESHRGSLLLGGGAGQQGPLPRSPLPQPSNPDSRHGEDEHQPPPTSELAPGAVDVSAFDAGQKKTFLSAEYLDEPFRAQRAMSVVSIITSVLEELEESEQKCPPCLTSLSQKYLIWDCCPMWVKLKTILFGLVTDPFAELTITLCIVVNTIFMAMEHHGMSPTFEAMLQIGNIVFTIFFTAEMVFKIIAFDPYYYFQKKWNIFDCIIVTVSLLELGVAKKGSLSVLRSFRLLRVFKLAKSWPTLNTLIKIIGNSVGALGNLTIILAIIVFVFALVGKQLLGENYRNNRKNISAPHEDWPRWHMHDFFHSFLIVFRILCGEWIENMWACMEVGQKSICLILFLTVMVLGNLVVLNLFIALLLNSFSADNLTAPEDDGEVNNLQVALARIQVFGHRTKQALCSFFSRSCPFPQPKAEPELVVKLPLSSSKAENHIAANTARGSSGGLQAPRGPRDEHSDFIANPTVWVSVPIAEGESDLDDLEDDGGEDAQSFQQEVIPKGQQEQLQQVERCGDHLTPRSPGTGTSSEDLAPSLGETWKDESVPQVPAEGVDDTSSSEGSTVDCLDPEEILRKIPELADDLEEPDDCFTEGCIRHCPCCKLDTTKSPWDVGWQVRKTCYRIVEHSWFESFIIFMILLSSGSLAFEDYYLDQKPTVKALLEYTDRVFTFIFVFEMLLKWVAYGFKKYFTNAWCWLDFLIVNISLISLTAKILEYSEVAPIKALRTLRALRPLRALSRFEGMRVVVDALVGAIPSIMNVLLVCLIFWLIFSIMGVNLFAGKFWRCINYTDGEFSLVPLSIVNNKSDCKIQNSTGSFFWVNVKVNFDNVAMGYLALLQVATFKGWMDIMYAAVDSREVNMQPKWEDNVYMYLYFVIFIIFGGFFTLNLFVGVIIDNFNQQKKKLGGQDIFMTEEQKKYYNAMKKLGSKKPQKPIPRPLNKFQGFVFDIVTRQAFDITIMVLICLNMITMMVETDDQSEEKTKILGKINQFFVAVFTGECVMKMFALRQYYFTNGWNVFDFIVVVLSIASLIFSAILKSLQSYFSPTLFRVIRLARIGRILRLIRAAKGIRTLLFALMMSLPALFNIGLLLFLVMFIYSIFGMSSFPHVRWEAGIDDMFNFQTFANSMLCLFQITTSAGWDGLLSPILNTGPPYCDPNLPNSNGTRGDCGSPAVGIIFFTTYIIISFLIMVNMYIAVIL

IC50 [nM]	SMILES
10 to 100	C[C@H]1[C@@H](c2ccc(F)c(F)c2OCC2COC2)[C@H](C(=O)Nc2ccc(CO)nc2)O[C@@]1(C)C(F)(F)F [Compound 24, (2R,3S,4S,5R)-3-(3,4-difluoro-2-(oxetan-3-ylmethoxy)phenyl)-N-(6-(hydroxymethyl)pyridin-3-yl)-4,5-dimethyl-5-(trifluoromethyl)tetrahydrofuran-2-carboxamide]
10 to 100	C[C@H]1[C@@H](c2ccc(F)c(F)c2OCCN2CCOCC2)[C@H](C(=O)Nc2ccc(CO)nc2)O[C@@]1(C)C(F)(F)F [Compound 25, (2R,3S,4S,5R)-3-(3,4-difluoro-2-(2-morpholinoethoxy)phenyl)-N-(6-(hydroxymethyl)pyridin-3-yl)-4,5-dimethyl-5-(trifluoromethyl)tetrahydrofuran-2-carboxamide]
100 to 1000	C[C@H]1[C@@H](c2ccc(F)c(F)c2OCCN2C[C@H]3COC[C@H]3C2)[C@H](C(=O)Nc2cnc(CO)nc2)O[C@@]1(C)C(F)(F)F [Compound 26, (2R,3S,4S,5R)-3-(3,4-difluoro-2-(2-((3aR,6aS)-tetrahydro-1H-furo[3,4-c]pyrrol-5(3H)-yl)ethoxy)phenyl)-N-(2-(hydroxymethyl)pyrimidin-5-yl)-4,5-dimethyl-5-(trifluoromethyl)tetrahydrofuran-2-carboxamide]
